Source: patent US10709758B2 (priority 2015, dated 2020)
Residues, ends and D or L forms follow the SMILES beside them.

Columns and labels:
TcdB [1] = system: TcdB
TcdB1 = TcdB1 (Clostridioides difficile, UniProt P18177)
CHO-K1 cells = format: cell-based
TcdB [2] = target: TcdB (Clostridioides difficile, UniProt P18177); details: cited from earlier work
Chain of TcdB (Clostridioides difficile, UniProt P18177) (P18177 whole entry, looked up): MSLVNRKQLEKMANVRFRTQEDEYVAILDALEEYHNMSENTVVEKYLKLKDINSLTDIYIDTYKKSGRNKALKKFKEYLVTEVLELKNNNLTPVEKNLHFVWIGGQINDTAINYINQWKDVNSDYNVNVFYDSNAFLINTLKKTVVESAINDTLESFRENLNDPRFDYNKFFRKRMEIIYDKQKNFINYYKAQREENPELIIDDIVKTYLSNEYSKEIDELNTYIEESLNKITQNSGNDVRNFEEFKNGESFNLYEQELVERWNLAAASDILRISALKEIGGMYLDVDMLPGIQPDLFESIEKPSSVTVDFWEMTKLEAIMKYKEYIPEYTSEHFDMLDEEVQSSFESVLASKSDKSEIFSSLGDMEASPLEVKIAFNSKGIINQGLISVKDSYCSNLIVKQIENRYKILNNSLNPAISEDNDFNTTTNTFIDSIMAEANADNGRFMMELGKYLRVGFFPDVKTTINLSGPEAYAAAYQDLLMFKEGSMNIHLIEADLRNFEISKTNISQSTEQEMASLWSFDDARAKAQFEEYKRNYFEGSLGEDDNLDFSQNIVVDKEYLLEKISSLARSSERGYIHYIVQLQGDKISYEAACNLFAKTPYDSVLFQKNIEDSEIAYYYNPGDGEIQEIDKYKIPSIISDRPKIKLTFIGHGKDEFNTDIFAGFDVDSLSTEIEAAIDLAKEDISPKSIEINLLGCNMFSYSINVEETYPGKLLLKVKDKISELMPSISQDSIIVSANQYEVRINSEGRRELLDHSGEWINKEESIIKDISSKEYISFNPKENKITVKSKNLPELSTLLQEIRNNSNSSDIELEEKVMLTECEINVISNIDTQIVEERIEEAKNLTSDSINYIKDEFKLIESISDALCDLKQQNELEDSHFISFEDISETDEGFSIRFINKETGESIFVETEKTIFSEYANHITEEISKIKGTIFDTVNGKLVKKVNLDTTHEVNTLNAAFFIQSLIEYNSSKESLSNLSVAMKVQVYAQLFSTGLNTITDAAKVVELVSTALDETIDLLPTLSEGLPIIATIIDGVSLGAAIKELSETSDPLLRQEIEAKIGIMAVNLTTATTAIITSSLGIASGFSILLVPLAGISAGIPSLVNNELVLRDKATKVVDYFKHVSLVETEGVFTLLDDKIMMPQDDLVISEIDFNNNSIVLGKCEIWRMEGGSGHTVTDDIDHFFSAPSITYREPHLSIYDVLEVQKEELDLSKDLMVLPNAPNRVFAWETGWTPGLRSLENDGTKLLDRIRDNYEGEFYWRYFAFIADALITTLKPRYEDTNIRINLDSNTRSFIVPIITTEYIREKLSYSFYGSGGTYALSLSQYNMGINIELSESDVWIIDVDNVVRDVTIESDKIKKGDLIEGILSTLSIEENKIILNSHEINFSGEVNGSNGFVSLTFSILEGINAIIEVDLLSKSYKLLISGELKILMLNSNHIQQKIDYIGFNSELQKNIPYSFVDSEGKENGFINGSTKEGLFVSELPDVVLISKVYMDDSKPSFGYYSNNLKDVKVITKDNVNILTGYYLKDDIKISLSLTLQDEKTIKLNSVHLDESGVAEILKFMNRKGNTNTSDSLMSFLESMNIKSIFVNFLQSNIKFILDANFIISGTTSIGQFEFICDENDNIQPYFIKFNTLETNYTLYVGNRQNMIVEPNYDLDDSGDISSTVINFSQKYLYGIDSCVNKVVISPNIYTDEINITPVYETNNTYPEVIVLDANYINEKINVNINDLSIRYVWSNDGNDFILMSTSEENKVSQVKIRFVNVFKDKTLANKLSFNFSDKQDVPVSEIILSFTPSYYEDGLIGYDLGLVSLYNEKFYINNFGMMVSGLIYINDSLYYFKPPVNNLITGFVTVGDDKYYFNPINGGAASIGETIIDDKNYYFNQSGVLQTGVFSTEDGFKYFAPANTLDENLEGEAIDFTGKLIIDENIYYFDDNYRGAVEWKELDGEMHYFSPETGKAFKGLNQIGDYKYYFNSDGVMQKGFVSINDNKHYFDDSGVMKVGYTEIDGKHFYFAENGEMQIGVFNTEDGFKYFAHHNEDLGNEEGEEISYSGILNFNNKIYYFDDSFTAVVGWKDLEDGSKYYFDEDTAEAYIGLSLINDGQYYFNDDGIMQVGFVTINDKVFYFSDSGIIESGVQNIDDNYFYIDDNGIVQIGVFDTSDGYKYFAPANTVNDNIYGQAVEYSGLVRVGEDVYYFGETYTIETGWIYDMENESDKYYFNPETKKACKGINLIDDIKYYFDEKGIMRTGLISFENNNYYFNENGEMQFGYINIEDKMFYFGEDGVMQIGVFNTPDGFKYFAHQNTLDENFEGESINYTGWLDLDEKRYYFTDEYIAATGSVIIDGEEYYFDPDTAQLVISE

Chain of TcdB1 (P18177 2-2366 limits assumed): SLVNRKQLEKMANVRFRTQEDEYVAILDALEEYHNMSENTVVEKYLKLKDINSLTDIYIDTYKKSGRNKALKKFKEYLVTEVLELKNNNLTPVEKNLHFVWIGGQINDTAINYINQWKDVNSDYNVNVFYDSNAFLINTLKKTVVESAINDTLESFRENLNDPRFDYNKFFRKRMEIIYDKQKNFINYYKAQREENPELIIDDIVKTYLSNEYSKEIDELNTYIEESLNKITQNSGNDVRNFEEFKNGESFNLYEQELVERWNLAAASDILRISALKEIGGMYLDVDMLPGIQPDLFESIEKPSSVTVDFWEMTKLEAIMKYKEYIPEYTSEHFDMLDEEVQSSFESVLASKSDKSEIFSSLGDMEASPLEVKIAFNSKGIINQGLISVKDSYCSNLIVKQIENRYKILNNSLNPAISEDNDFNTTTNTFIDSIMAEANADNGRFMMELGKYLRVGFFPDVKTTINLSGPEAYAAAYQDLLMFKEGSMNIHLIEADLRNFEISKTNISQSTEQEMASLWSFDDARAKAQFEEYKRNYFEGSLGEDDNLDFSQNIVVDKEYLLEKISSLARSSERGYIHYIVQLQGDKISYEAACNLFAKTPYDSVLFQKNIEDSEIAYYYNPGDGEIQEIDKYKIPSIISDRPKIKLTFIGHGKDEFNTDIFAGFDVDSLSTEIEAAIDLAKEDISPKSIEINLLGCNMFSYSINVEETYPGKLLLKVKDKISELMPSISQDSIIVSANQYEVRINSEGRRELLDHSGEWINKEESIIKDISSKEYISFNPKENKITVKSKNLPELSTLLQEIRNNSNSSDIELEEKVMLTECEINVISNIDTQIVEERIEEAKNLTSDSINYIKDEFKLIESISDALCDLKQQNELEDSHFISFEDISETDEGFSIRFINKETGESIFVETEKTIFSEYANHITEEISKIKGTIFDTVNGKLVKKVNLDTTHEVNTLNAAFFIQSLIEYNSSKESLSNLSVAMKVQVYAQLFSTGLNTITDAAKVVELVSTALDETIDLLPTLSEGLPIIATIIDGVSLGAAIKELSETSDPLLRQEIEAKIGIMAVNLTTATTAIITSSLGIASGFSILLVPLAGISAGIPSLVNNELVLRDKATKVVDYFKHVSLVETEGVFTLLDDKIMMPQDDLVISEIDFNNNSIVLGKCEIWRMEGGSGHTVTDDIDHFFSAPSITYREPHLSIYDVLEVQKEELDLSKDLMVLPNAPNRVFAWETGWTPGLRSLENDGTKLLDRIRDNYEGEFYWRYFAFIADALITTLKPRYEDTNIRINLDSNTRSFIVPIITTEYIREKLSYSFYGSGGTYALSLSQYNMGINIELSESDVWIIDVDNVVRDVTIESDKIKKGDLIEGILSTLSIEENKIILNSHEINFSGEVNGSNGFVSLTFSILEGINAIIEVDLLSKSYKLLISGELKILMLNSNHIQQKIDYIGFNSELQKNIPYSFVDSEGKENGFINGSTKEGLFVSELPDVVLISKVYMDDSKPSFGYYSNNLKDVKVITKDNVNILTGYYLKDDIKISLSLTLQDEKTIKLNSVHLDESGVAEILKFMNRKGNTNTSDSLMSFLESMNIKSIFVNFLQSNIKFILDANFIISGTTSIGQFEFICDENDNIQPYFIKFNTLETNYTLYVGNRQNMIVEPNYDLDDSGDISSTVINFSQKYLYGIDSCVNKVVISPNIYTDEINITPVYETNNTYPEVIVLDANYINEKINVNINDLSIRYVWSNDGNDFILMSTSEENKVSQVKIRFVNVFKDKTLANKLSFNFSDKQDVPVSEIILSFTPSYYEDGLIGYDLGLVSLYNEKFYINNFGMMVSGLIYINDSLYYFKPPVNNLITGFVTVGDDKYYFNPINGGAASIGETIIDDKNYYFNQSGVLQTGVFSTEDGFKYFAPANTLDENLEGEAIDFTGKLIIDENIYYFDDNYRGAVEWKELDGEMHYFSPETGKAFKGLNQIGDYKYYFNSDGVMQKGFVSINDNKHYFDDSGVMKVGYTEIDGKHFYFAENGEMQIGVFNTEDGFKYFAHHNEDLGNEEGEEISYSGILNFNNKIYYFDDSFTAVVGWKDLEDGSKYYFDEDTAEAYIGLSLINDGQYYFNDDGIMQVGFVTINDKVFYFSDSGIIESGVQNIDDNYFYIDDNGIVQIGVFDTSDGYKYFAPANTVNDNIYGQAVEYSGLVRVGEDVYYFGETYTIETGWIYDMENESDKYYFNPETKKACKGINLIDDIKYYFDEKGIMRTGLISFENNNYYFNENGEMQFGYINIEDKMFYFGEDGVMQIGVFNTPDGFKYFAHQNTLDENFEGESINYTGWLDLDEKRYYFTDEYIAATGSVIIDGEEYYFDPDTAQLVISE

CC(C)[C@H](NC(=O)[C@H](CCCCN)NC(=O)[C@H](CCCNC(=N)N)NC(=O)[C@H](CCCCN)NC(=O)[C@H](CCCCN)NC(=O)[C@H](CCCCN)NC(=O)[C@@H]1CCCN1C(=O)[C@H](CCC(N)=O)NC(=O)[C@H](CO)NC(=O)[C@H](Cc1c[nH]c2ccccc12)NC(=O)[C@H](CCC(=O)O)NC(=O)[C@@H](NC(=O)[C@H](Cc1c[nH]c2ccccc12)NC(=O)[C@H](Cc1c[nH]c2ccccc12)NC(=O)[C@@H](NC(=O)[C@H](CCC(=O)O)NC(=O)[C@H](Cc1c[nH]c2ccccc12)NC(=O)[C@H](Cc1c[nH]c2ccccc12)NC(=O)[C@@H](NC(=O)[C@H](CCC(=O)O)NC(=O)[C@@H](N)CCCCN)[C@@H](C)O)[C@@H](C)O)[C@@H](C)O)C(=O)O [Pep-1, reference compound] (H-KETWWETWWTEWSQPKKKRKV-OH)
effect of known CPPs on the cytotoxicity of TcdB (TcdB [1]): did not appear to alter TcdB cytotoxicity

CC(C)C[C@H](NC(=O)[C@H](CCCCN)NC(=O)[C@H](CC(N)=O)NC(=O)[C@H](C)NC(=O)[C@H](CC(C)C)NC(=O)[C@@H](NC(=O)[C@H](CCCCN)NC(=O)[C@H](CC(=O)O)NC(=O)[C@H](CCCCN)NC(=O)[C@H](Cc1ccccc1)NC(=O)[C@@H](NC(=O)[C@@H](N)CC(N)=O)C(C)C)[C@@H](C)O)C(=O)N[C@@H](CO)C(=O)N[C@@H](Cc1ccccc1)C(=O)N[C@@H](CC(N)=O)C(=O)N[C@@H](Cc1ccccc1)C(=O)N[C@@H](CO)C(=O)N[C@@H](CC(=O)O)C(=O)N[C@@H](CCCCN)C(=O)O [PepB1] (H-NVFKDKTLANKLSFNFSDK-OH)
protection from cytotoxicity of TcdB1 over a range of toxin concentrations (TcdB1): did not inhibit the cytotoxicity | protection from cytotoxicity of TcdB2 over a range of toxin concentrations (TcdB2): did not inhibit the cytotoxicity

CC[C@H](C)[C@H](NC(=O)[C@H](CCCCN)NC(=O)[C@H](CC(=O)O)NC(=O)[C@H](CO)NC(=O)[C@@H](NC(=O)[C@@H](NC(=O)[C@H](CC(N)=O)NC(=O)CNC(=O)[C@H](CCCCN)NC(=O)[C@H](Cc1ccccc1)NC(=O)[C@@H](NC(=O)[C@@H](N)CC(N)=O)C(C)C)[C@@H](C)O)[C@@H](C)CC)C(=O)N[C@@H](CO)C(=O)N[C@@H](Cc1ccccc1)C(=O)N[C@@H](CC(N)=O)C(=O)N[C@@H](Cc1ccccc1)C(=O)N[C@@H](CO)C(=O)N[C@@H](CC(=O)O)C(=O)N[C@@H](CCCCN)C(=O)O [PepB2]
impact on TcdB cytotoxicity, PepB2 alone at 25 μM (TcdB [1]): minimal impact | inhibition of TcdB cytotoxicity, PepB2 combined with methyl cholate (TcdB [1]): strong inhibition | increase of the 50% toxic concentration (TC50) of TcdB2 (TcdB2): 200 fold | protection from cytotoxicity of TcdB2 over a range of toxin concentrations (TcdB2): protects CHO-K1 cells

N=C(N)NCCC[C@H](NC(=O)CN)C(=O)N[C@@H](CCCCN)C(=O)N[C@@H](CCCCN)C(=O)N[C@@H](CCCNC(=N)N)C(=O)N[C@@H](CCCNC(=N)N)C(=O)N[C@@H](CCC(N)=O)C(=O)N[C@@H](CCCNC(=N)N)C(=O)N[C@@H](CCCNC(=N)N)C(=O)N[C@@H](CCCNC(=N)N)C(=O)N1CCC[C@H]1C(=O)N1CCC[C@H]1C(=O)N[C@@H](CCC(N)=O)C(=O)O [TAT, reference compound]
effect of known CPPs on the cytotoxicity of TcdB (TcdB [1]): did not appear to alter TcdB cytotoxicity

CC[C@H](C)[C@H](NC(=O)[C@H](CCCCN)NC(=O)[C@H](CCCCN)NC(=O)[C@H](C)NC(=O)[C@H](CC(C)C)NC(=O)[C@H](C)NC(=O)[C@H](C)NC(=O)[C@H](CC(C)C)NC(=O)[C@H](C)NC(=O)[C@H](CCCCN)NC(=O)[C@H](CC(C)C)NC(=O)[C@H](CC(N)=O)NC(=O)[C@@H](NC(=O)[C@H](CCCCN)NC(=O)CNC(=O)[C@H](CC(C)C)NC(=O)[C@H](CC(C)C)NC(=O)[C@H](Cc1ccc(O)cc1)NC(=O)CNC(=O)[C@H](C)N)[C@@H](C)CC)C(=O)N[C@@H](CC(C)C)C(=O)O [transportan 10, reference compound]
effect of known CPPs on the cytotoxicity of TcdB (TcdB [1]): did not appear to alter TcdB cytotoxicity

DKFSNSNKDKISFGNVTFI [Scramble 9]
Anti-TcdB activity of scrambled PepB2 peptides (TcdB [1]): found to have inhibitory activity

FKDNNSIIFDVKGTNFSSK [Scramble 8]
Anti-TcdB activity of scrambled PepB2 peptides (TcdB [1]): found to have inhibitory activity

KPPIKNLITGFTTIGDDKYYF [Peptide 9]
inhibitory activity against TcdB1 (percent of viable cells) (TcdB1): weaker inhibitory activity | inhibitory activity against TcdB2 (percent of viable cells) (TcdB2): weaker inhibitory activity

NVFKGKTISDKISFNFSDK [PepB2-N6K]
cell penetrating activities of mutant peptides (CHO-K1 cells): cell penetrating activities were reduced

NVFKGNTLANKLSFNFSDK [PepB1-DK5-6GN]
cell penetrating activities of mutant peptides (CHO-K1 cells): cell penetrating activities were gained

NVFKSNTISDKISFNFSDK [PepB2-G5S]
cell penetrating activities of mutant peptides (CHO-K1 cells): Cell penetrating activities also remained | dextran delivery compared with PepB2 (CHO-K1 cells): this is not the case for dextran delivery | transport of dsRNA into cells compared with PepB2 (CHO-K1 cells): more efficiently transports dsRNA into cells than PepB2

SFNKMSIDFKDIKKLSLGYIMS [TcdA 1774-1795]
TcdB inhibitory activity? (TcdB [1]): YES | dose dependence of inhibition of TcdB (TcdB [1]): Dose-dependent inhibition | inhibitory activity against TcdB toxin (TcdB [1]): found to have inhibitory activity against TcdB toxin

SNKNFSGIVFTNFDIDKSK [Scramble 12]
Anti-TcdB activity of scrambled PepB2 peptides (TcdB [1]): found to have inhibitory activity

methyl cholate [reference compound]
impact on TcdB cytotoxicity, methyl cholate alone (TcdB [1]): minimal impact | effect on the thermal stability of TcdB (TcdB [2]): increase the thermal stability of TcdB
